Data published in PMC12892976, “Alkylation-based optimization of antifungal FPPS inhibitors yields a potent, broad-spectrum lipophilic zoledronate derivative” (mBio, 2025).

Experiments:
Assay in all cases: checkerboard drug interaction (FICI, MICc)
[1] = tested on: Aspergillus lentulus; type: cell-based;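 note: simplified diagonal checkerboard screen pairing antifungals with FPPS inhibitors, with the interaction index calculated under the Loewe additivity model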
Procedure: (§1) Drug interactions between antifungals and FPPS inhibitors were investigated using a simplified checkerboard diagonal screening method ([45]). […] FICIs were determined according to the Loewe additivity model ([17]).

[2] = tested on: Microsporum canis; type: cell-based;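 note: simplified diagonal checkerboard screen pairing antifungals with FPPS inhibitors, FICI calculated under the Loewe additivity model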
Procedure: as §1

[3] = tested on: Nannizzia nana; type: cell-based;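 note: simplified diagonal checkerboard screen pairing antifungals with FPPS inhibitors, FICI calculated under the Loewe additivity model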
Procedure: as §1

[4] = tested on: Trichophyton tonsurans; type: cell-based;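 note: simplified diagonal checkerboard screen combining antifungals with FPPS inhibitors, with FICI calculated under the Loewe additivity model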
Procedure: as §1

[5] = tested on: Trichophyton soudanense; type: cell-based;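 note: simplified diagonal checkerboard screen pairing antifungals with FPPS inhibitors, FICI computed under the Loewe additivity model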
Procedure: as §1

[6] = tested on: Lomentospora prolificans;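 note: simplified diagonal checkerboard screen pairing antifungals with FPPS inhibitors, FICI calculated under the Loewe additivity model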
Procedure: as §1

[7] = tested on: Aspergillus parafelis;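 note: simplified diagonal checkerboard screen pairing antifungals with FPPS inhibitors, FICI calculated under the Loewe additivity model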
Procedure: as §1

[8] = tested on: Aspergillus frankstonensis;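 note: simplified diagonal checkerboard screen pairing antifungals with FPPS inhibitors, FICI calculated using the Loewe additivity model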
Procedure: as §1

[9] = tested on: Epidermophyton floccosum
Procedure: as §1

[10] = tested on: Nannizzia gypsea;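 note: simplified diagonal checkerboard screen pairing antifungals with FPPS inhibitors, FICI derived using the Loewe additivity model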
Procedure: as §1

[11] = tested on: Trichophyton interdigitale;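 note: simplified diagonal checkerboard screen pairing antifungals with FPPS inhibitors, FICI values calculated under the Loewe additivity model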
Procedure: as §1

Structure (SMILES): CCCCCCCCCCn1cc[n+](CC(O)(P(=O)(O)O)P(=O)(O)O)c1 [10-ZOL, Decyl-zoledronate]
- bisphosphonate MICc ([1]; with AMB): 2
- bisphosphonate MICc ([1]; with CAS): 2
- bisphosphonate MICc ([1]; with FLC): 2
- bisphosphonate MICc ([1]; with ITR): 1
- bisphosphonate MICc ([1]; with KET): 1
- bisphosphonate MICc ([1]; with VOR): 1
- FICI ([2]; 5FC:10-ZOL): 3
- FICI ([2]; CAS:10-ZOL): 2
- FICI ([2]; VOR:10-ZOL): 1.16
- bisphosphonate MICc ([2]; with 5FC): 1
- bisphosphonate MICc ([2]; with AMB): 0.25
- bisphosphonate MICc ([2]; with CAS): 1
- bisphosphonate MICc ([2]; with FLC): 0.25
- bisphosphonate MICc ([2]; with ITR): 0.5
- bisphosphonate MICc ([2]; with KET): 1
- bisphosphonate MICc ([2]; with VOR): 0.125
- FICI ([3]; 5FC:10-ZOL): 2
- FICI ([3]; AMB:10-ZOL): 2.25
- FICI ([3]; CAS:10-ZOL): 2.17
- FICI ([3]; FLC:10-ZOL): 1.5
- FICI ([3]; ITR:10-ZOL): 2
- FICI ([3]; VOR:10-ZOL): 1.17
- bisphosphonate MICc ([3]; with 5FC): 1
- bisphosphonate MICc ([3]; with AMB): 0.25
- bisphosphonate MICc ([3]; with CAS): 0.25
- bisphosphonate MICc ([3]; with FLC): 0.5
- bisphosphonate MICc ([3]; with ITR): 1
- bisphosphonate MICc ([3]; with KET): 0.25
- bisphosphonate MICc ([3]; with VOR): 0.125
- FICI ([4]; 5FC:10-ZOL): 2
- FICI ([4]; AMB:10-ZOL): 2.92
- FICI ([4]; CAS:10-ZOL): ≥4
- FICI ([4]; FLC:10-ZOL): 0.52
- bisphosphonate MICc ([4]; with 5FC): 1
- bisphosphonate MICc ([4]; with AMB): 1
- bisphosphonate MICc ([4]; with CAS): 1
- bisphosphonate MICc ([4]; with FLC): 0.5
- bisphosphonate MICc ([4]; with ITR): 1
- bisphosphonate MICc ([4]; with KET): 0.25
- bisphosphonate MICc ([4]; with VOR): 0.5
- FICI ([5]; 5FC:10-ZOL): 2
- FICI ([5]; FLC:10-ZOL): 0.28
- FICI ([5]; VOR:10-ZOL): 0.61
- bisphosphonate MICc ([5]; with 5FC): 2
- bisphosphonate MICc ([5]; with AMB): 0.25
- bisphosphonate MICc ([5]; with CAS): 0.5
- bisphosphonate MICc ([5]; with FLC): 0.5
- bisphosphonate MICc ([5]; with ITR): 0.125
- bisphosphonate MICc ([5]; with KET): 1
- bisphosphonate MICc ([5]; with VOR): 0.25
- FICI ([6]; CAS:10-ZOL): ≥4
- FICI ([6]; ITR:10-ZOL): 0.5
- bisphosphonate MICc ([6]; with 5FC): 1
- bisphosphonate MICc ([6]; with AMB): 2
- bisphosphonate MICc ([6]; with CAS): 0.5
- bisphosphonate MICc ([6]; with FLC): 1
- bisphosphonate MICc ([6]; with ITR): 0.5
- bisphosphonate MICc ([6]; with KET): 1
- bisphosphonate MICc ([6]; with VOR): 1
- FICI ([7]; 5FC:10-ZOL): ≥4
- FICI ([7]; CAS:10-ZOL): ≥4
- FICI ([7]; FLC:10-ZOL): 0.52
- bisphosphonate MICc ([7]; with 5FC): 2
- bisphosphonate MICc ([7]; with AMB): 2
- bisphosphonate MICc ([7]; with CAS): 1
- bisphosphonate MICc ([7]; with FLC): 2
- bisphosphonate MICc ([7]; with ITR): 4
- bisphosphonate MICc ([7]; with KET): 1
- bisphosphonate MICc ([7]; with VOR): 2
- FICI ([8]; 5FC:10-ZOL): 3
- FICI ([8]; CAS:10-ZOL): 1.09
- FICI ([8]; ITR:10-ZOL): 1
- FICI ([8]; VOR:10-ZOL): ≥4
- bisphosphonate MICc ([8]; with 5FC): 1
- bisphosphonate MICc ([8]; with AMB): 2
- bisphosphonate MICc ([8]; with CAS): 0.125
- bisphosphonate MICc ([8]; with FLC): 0.5
- bisphosphonate MICc ([8]; with ITR): 0.5
- bisphosphonate MICc ([8]; with KET): 0.5
- bisphosphonate MICc ([8]; with VOR): 2
- FICI ([9]; 5FC:10-ZOL): 1.5
- FICI ([9]; AMB:10-ZOL): 2
- bisphosphonate MICc ([9]; with 5FC): 0.5
- bisphosphonate MICc ([9]; with AMB): 0.5
- bisphosphonate MICc ([9]; with CAS): 0.25
- bisphosphonate MICc ([9]; with FLC): 0.25
- bisphosphonate MICc ([9]; with ITR): 0.125
- bisphosphonate MICc ([9]; with KET): 1
- bisphosphonate MICc ([9]; with VOR): 0.25
- FICI ([10]; AMB:10-ZOL): 2
- FICI ([10]; CAS:10-ZOL): 2.25
- FICI ([10]; ITR:10-ZOL): 1.5
- FICI ([10]; VOR:10-ZOL): 1.5
- bisphosphonate MICc ([10]; with 5FC): 0.5
- bisphosphonate MICc ([10]; with AMB): 0.5
- bisphosphonate MICc ([10]; with CAS): 1
- bisphosphonate MICc ([10]; with FLC): 0.25
- bisphosphonate MICc ([10]; with ITR): 0.25
- bisphosphonate MICc ([10]; with KET): 0.25
- bisphosphonate MICc ([10]; with VOR): 0.25
- FICI ([11]; 5FC:10-ZOL): 1.5
- FICI ([11]; CAS:10-ZOL): 3
- bisphosphonate MICc ([11]; with 5FC): 1
- bisphosphonate MICc ([11]; with AMB): 0.25
- bisphosphonate MICc ([11]; with CAS): 1
- bisphosphonate MICc ([11]; with FLC): 1
- bisphosphonate MICc ([11]; with ITR): 0.125
- bisphosphonate MICc ([11]; with KET): 0.5
- bisphosphonate MICc ([11]; with VOR): 0.5
